Results from US9089499B2, “Para-coumaric acid or para-hydroxycinnamic acid derivatives and their use in cosmetic or dermatological compositions” (BASF Beauty Care Solutions France S.A.S., priority 2005, dated 2015).
Like-named read-outs stand apart in the source and are kept apart here. Values belong to the compound of their own block, whether it stands above or below them.

Experiments:
[1] = target: T1, Human tyrosinase (Homo sapiens, UniProt P14679); experiment: Inhibition of human tyrosinase after 24 h application to normal human melanocytes in monolayer; format: cell-based; conditions: for anti-tyrosinase activity, in words: comment on Table 4, normal human melanocytes; for inhibition at 1000 µM: 10^−3 M; for Tyrosinase inhibition, Mean Inhibition (%), 0.03%: test concentration 0.03%
T1 construct: endogenous in cells; host or cells: normal human melanocytes (abdominal surgery; several donors of fair, brown and black phototypes)
T1 sequence (P14679 19-529): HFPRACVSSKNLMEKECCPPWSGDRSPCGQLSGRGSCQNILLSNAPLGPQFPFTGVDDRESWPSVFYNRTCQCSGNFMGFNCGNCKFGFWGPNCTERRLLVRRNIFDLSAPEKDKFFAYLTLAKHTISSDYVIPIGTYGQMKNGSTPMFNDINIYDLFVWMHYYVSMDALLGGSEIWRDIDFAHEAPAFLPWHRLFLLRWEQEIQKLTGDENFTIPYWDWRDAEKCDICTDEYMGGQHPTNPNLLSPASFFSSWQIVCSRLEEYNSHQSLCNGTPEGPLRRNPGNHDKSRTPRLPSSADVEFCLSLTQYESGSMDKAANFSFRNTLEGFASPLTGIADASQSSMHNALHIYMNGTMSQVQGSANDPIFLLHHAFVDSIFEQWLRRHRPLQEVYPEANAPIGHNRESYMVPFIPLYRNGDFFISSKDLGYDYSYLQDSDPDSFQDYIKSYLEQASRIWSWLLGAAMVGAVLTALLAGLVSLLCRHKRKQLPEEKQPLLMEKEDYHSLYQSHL
Procedure: Normal human melanocytes (obtained from abdominal surgery) are seeded in 24-well plates at a rate of 80 000 cells per well. They are cultured to confluence and the active agents are applied for 24 hours to the culture media. After 24 hours, the media are removed and the melanocytes are detached via mechanical action. An extraction is performed via a thermal shock and the supernatants are then recovered and incubated with MBTH (Sigma) and L-dopa (Sigma). The OD at 490 nm is measured after 30 minutes, and the tyrosinase inhibition is calculated by relating the OD at 490 nm to the protein content (measured in each culture well) of the test relative to the ratio: OD 490 nm/protein concentration of the negative control (untreated control).
The compounds derived from the examples mentioned above were tested on melanocytes derived from various donors but of fair phototype, according to the protocol described in Example 29. The donors tested are as follows: • donor S (donor tested in Example 12): • donor 1: • donor 2: • donor 3
The compound derived from Example 1 is tested on cultures of melanocytes obtained from 2 donors of brown phototype and from one donor of black phototype. The protocol applied is that described in Example 29. […]

[2] = target: T1, Human tyrosinase; experiment: In vitro test of inhibition of human tyrosinase from melanocyte extracts (L-dopa/MBTH, OD 490 nm); format: biochemical; conditions: melanocyte extract; for inhibition at 100 µM: 10^−4M, read-out: Inhibition of human tyrosinase, percentage of inhibition, Mean 10^−4M; for inhibition at 10 µM: 10^−5M, read-out: Inhibition of human tyrosinase, percentage of inhibition, Mean 10^−5M
Procedure: Human tyrosinase, obtained from melanocyte extracts obtained from healthy donors, catalyses the formation of L-dopaquinone from L-dopa. Now, the L-dopaquinone may be quantified by visible spectrophotometry at 490 nm by means of a chromogen: 3-methyl-2-benzothiazolinone hydrazone (MBTH).
The melanocyte extract is obtained after lysis of cell membranes of the normal human melanocytes, performed via a thermal shock. The supernatant is recovered and then incubated with MBTH (Sigma) and L-dopa (Sigma). […]

[3] = Antiradical activity, acellular DPPH model; conditions: DPPH 30 minutes, absorbance 520 nm
Procedure: The antiradical activity of the derivatives derived from the syntheses described above was evaluated in an in vitro acellular model using DPPH.
1,1-Diphenyl 2-picryihydrazyl, on account of its paramagnetic structure, can accept an electron or a hydrogen radical to become a stable diamagnetic molecule. This free radical, which is purple coloured in ethanol, has a strong absorption band at 520 nm.
The addition of a compound that provides electrons results in a decolorization of the 1,1-diphenyl 2-picrylhydrazyl that is proportional to the number of electrons taken up by the radical, which may be monitored by measuring the absorbance at 520 nm.
DPPH is incubated for 30 minutes in the presence of the derivatives described above, tested at a concentration of 10^−5M, or alone for the control. At the end of the incubation, the antiradical activity of the above derivatives is evaluated by measuring the absorbance of the solution at 520 nm.
The antiradical activity of each test product is calculated according to the formula, as a percentage: 100−((OD520 in the presence of the test compound/OD520 in the absence of compound)×100)

[4] = system: normal human melanocytes; experiment: Cytotoxicity on normal human melanocytes, PNPP assay; format: cell-based; conditions: 24 hours, relative to untreated wells
Procedure: The cytotoxicity of the active agents is studied on normal human melanocytes in 24-well plates, via assay with PNPP (P-nitrophenyl phosphate), this substance being converted into p-nitrophenol via the intracellular acid phosphatases of viable cells. The absorbance of p-nitrophenol at 405 nm is directly proportional to the number of viable cells.
The active agents are tested at 2 different concentrations (10^−4 M and 10^−5 M) and added to the culture medium and incubated at 37° C. for 24 hours. The assay with PNPP is performed on the cell lawn and the results are expressed as a percentage of viability relative to the negative control (untreated wells).

[5] = system: fungal tyrosinase; experiment: In vitro test of inhibition of isolated fungal tyrosinase (L-dopa, dopachrome OD 490 nm); format: biochemical
Excerpt: Tyrosinase catalyses the formation of L-dopaquinone and then of dopachrome from L-dopa. Now, dopachrome is a coloured compound that may be quantified by visible spectrophotometry at 490 nm. The use of an active agent capable of modifying the enzymatic activity will be reflected by a variation in the optical density at 490 nm. The to ratio of the rates of formation of dopachrome makes it possible to determine precisely the activations or inhibitions obtained with the various test molecules.
The sample to be tested is incubated in the presence of fungal tyrosinase (Sigma), for 5 minutes with stirring. L-Dopa (Sigma), a tyrosinase substrate, is incubated for 10 minutes in the absence of light, in the presence or absence of the test molecules. The calculation of the percentage of inhibition is performed by relating the test OD to the OD of the negative control without molecule.
In the context of this in vitro test, the p-coumaric acid derivatives were tested at final concentrations of 10^−4M and 10^−5M.

[6] = system: melanocytes; experiment: Cytotoxicity of literature controls in the melanocyte tyrosinase model
Procedure: A study is performed with molecules known in the literature for their depigmenting activity; these molecules are applied to the model described in Example 29 so as to compare their efficacy relative to the molecules described in the various examples. […]

[7] = 10^−4M, 24 hours, read-out: Inhibition of human tyrosinase after application to normal human melanocytes, percentage of inhibition, Mean 10^−4M
[8] = 10^−5M, 24 hours, read-out: Inhibition of human tyrosinase after application to normal human melanocytes, percentage of inhibition, Mean 10^−5M
[9] = read-out: Inhibition of human tyrosinase after application to normal human melanocytes, percentage of inhibition, Mean 10^−4M

Compound: Cl.NCCc1ccc(O)c(O)c1 [Dopamine, 3-hydroxytyramine, reference compound]
- anti-tyrosinase activity, in words [1]: very low activity
- inhibition at 100 µM [1, 9]: 10.3%

Compound: COc1cc(/C=C/C(=O)NCCc2ccc(OC)c(OC)c2)ccc1O [Example 2, N-trans-feruloyl-3,4-dimethoxydopamine]
- inhibition at 100 µM [2]: 0.94%
- inhibition at 10 µM [2]: 0%
- Antiradical activity, Mean 10^−5 M [3]: 20.16%
- Percentages of viability, Mean 10^−4 M [4]: 114.29%
- Percentages of viability, Mean 10^−5 M [4]: 114.6%
- Inhibition of fungal tyrosinase, percentage of inhibition, Mean 10^−4M ([5]; 490 nm): 0%
- inhibition at 100 µM [1, 7]: 24.6%
- inhibition at 10 µM [1, 8]: 18.5%

Compound: COc1cc(CCC(=O)NCCc2ccc(O)c(O)c2)ccc1O [Example 6, N-dihydroferuloyldopamine]
- inhibition at 100 µM [1, 7]: 41.8%

Compound: O=c1cc(CO)occ1O [Kojic acid, kojic acid]
- Cytotoxicity, 0.005% [6]: no
- Cytotoxicity, 0.05% [6]: no
- Cytotoxicity, 0.5% [6]: cell death
- Inhibition of fungal tyrosinase, positive control ([5]; 0.01%): 45%

Compound: Cl.NCCc1ccc(O)cc1 [Tyramine, reference compound]
- anti-tyrosinase activity, in words [1]: very low activity
- inhibition at 100 µM [1, 9]: 22.8%

Compound: O=C1O[C@H]([C@@H](O)CO)C(O)=C1O [VitC, Vitamin C]
- Cytotoxicity, 0.03% [6]: no
- Cytotoxicity, 0.3% ([6]; test concentration 0.3%): cell death
- Cytotoxicity, 3% ([6]; test concentration 3%): cell death
- Tyrosinase inhibition, Mean Inhibition (%), 0.03% [1]: 0%

Compound: O=C(O)C=Cc1ccc(O)cc1 [p-Coumaric acid, p-hydroxycinnamic acid, reference compound]
- inhibition at 100 µM [1, 7]: 50.1%

Compound: O=C(O)CCc1ccc(O)cc1 [p-Dihydrocoumaric acid, 3-(4-hydroxyphenyl)propionic acid, reference compound]
- inhibition at 100 µM [1, 7]: 3.74%

Further lines, with some results ahead:

- inhibition at 100 µM [1, 7]: 10.4%
- inhibition at 10 µM [1, 8]: 2.34%
- anti-tyrosinase activity, in words [1]: very low activity
Compound: O=C(O)C=Cc1ccc(O)c(O)c1 [Caffeic acid, 3,4-dihydroxycinnamic acid, reference compound]

- inhibition at 100 µM [2]: 0%
- inhibition at 10 µM [2]: 7.56%
- Inhibition of fungal tyrosinase, percentage of inhibition, Mean 10^−4M ([5]; 490 nm): 29.41%
- Inhibition of fungal tyrosinase, percentage of inhibition, Mean 10^−5M ([5]; 10^−5M, 490 nm): 10.16%
- inhibition at 100 µM [1, 7]: 49.6%
- inhibition at 10 µM [1, 8]: 33.1%
- inhibition at 1000 µM ([1]; B103, Donor B, brown phototype, read-out: Inhibition of tyrosinase, Mean Donor B, 10^−3 M): 87.4%
- inhibition at 100 µM ([1]; B104, Donor B, brown phototype, 10^−4 M, read-out: Inhibition of tyrosinase, Mean Donor B, 10^−4 M): 30.5%
- inhibition at 100 µM ([1]; Donor 1, fair phototype, 10^−4 M, read-out: Inhibition of tyrosinase, Mean 10^−4 M, Donor 1): 44.8%
- inhibition at 10 µM ([1]; Donor 1, fair phototype, 10^−5 M, read-out: Inhibition of tyrosinase, Mean 10^−5 M, Donor 1): 0%
- inhibition at 100 µM ([1]; Donor 2, fair phototype, 10^−4 M, read-out: Inhibition of tyrosinase, Mean 10^−4 M, Donor 2): 10.7%
- inhibition at 10 µM ([1]; Donor 2, fair phototype, 10^−5 M, read-out: Inhibition of tyrosinase, Mean 10^−5 M, Donor 2): 0%
- inhibition at 100 µM ([1]; Donor 3, fair phototype, 10^−4 M, read-out: Inhibition of tyrosinase, Mean 10^−4 M, Donor 3): 57.9%
- inhibition at 10 µM ([1]; Donor 3, fair phototype, 10^−5 M, read-out: Inhibition of tyrosinase, Mean 10^−5 M, Donor 3): 42.5%
- inhibition at 1000 µM ([1]; Donor A, brown phototype, read-out: Inhibition of tyrosinase, Mean Donor A, 10^−3 M): 85.6%
- inhibition at 100 µM ([1]; Donor A, brown phototype, 10^−4 M, read-out: Inhibition of tyrosinase, Mean Donor A, 10^−4 M): 40.4%
- inhibition at 10 µM ([1]; Donor A, brown phototype, 10^−5 M, read-out: Inhibition of tyrosinase, Mean Donor A, 10^−5 M): 15.6%
- inhibition at 10 µM ([1]; Donor B, brown phototype, 10^−5 M, read-out: Inhibition of tyrosinase, Mean Donor B, 10^−5 M): 16.7%
- inhibition at 100 µM ([1]; Donor S, fair phototype, 10^−4 M, read-out: Inhibition of tyrosinase, Mean 10^−4 M, Donor S): 49.6%
- inhibition at 10 µM ([1]; Donor S, fair phototype, 10^−5 M, read-out: Inhibition of tyrosinase, Mean 10^−5 M, Donor S): 33.1%
- inhibition at 100 µM ([1]; donor of black phototype, 10^−4 M, read-out: Inhibition, Mean Negroid skin, 10^−4 M): 44.5%
- inhibition at 10 µM ([1]; donor of black phototype, 10^−5 M, read-out: Inhibition, Mean Negroid skin, 10^−5 M): 21.9%
Compound: COc1cc(/C=C/C(=O)NCCc2ccc(O)cc2)ccc1O [Example 3, N-trans-feruloyltyramine]
- Antiradical activity, Mean 10^−5 M [3]: 13.73%
- Percentages of viability, Mean 10^−4 M [4]: 102.55%
- Percentages of viability, Mean 10^−5 M [4]: 111.54%

- inhibition at 100 µM [1, 7]: 27.7%
Compound: COc1cc(CCC(=O)NCCc2ccc(O)cc2)ccc1O [Example 5, N-dihydroferuloyltyramine]

- inhibition at 100 µM [1, 7]: 33.6%
- inhibition at 10 µM [1, 8]: 3.48%
Compound: COc1cc(/C=C/C(=O)OCCc2ccc(O)cc2)ccc1O [Example 7, 2-(p-hydroxyphenylethyl)trans-ferulate]

- inhibition at 100 µM [1, 7]: 93.9%
- inhibition at 10 µM [1, 8]: 12.9%
Compound: O=C(CCc1ccc(O)c(O)c1)NCCc1ccc(O)cc1 [Example 13, dihydrocaffeoyltyramine]

- inhibition at 100 µM [1, 7]: 96.2%
- inhibition at 10 µM [1, 8]: 40.7%
Compound: O=C(CCc1ccc(O)cc1)NCCc1ccc(O)cc1 [Example 16, N-dihydrocoumaroyltyramine]

- inhibition at 100 µM [1, 7]: 11.7%
- inhibition at 10 µM [1, 8]: 5.87%
- anti-tyrosinase activity, in words [1]: very sparingly active
Compound: COc1cc(C=CC(=O)O)ccc1O [Ferulic acid, 4-hydroxy-3-methoxycinnamic acid, reference compound]

- Tyrosinase inhibition, Mean Inhibition (%), 0.03% [1]: 2.93%
- Tyrosinase inhibition, Mean Inhibition (%), 0.3% ([1]; test concentration 0.3%): 1.55%
- Tyrosinase inhibition, Mean Inhibition (%), 3% ([1]; test concentration 3%): 0%
Compound: O=C1O[C@H]([C@@H](O)CO)C([O-])=C1OP(=O)([O-])[O-].O=C1O[C@H]([C@@H](O)CO)C([O-])=C1OP(=O)([O-])[O-].[Mg+2].[Mg+2].[Mg+2] [VitC MgP, reference compound]
- Cytotoxicity, 0.03% [6]: no
- Cytotoxicity, 0.3% [6]: no
- Cytotoxicity, 3% [6]: no
